Literature values in patent US20020025341A1, “Controlled release formulation of divalproex sodium” (priority 1998, published 2002).
Read-outs that look alike come from different tables or passages of the source.

What was measured:
[1] = system: plasma proteins
[2] = patients consuming valproate

SMILES	free fraction (plasma protein binding) ([1]; at 40 μg/ml)	free fraction (plasma protein binding) ([1]; at 130 μg/ml)	patients affected by GI irritation [2]	half life (in adults)	half life (in children)
CCCC(CCC)C(=O)O [valproate]	approximately 10%	18.5%	up to one third of patients		
CCCC(CCC)C(=O)O [valproic acid, 2-Propylpentanoic acid]				between six and seventeen hours	between four and fourteen hours
